{"source": "patent US10501450B2", "about": "“Anhydrate-free polymorphically pure micronized crystalline brexpiprazole di-hydrate for use in intramuscular injectable sustained release formulations” (HEXAL AG, priority 2016, dated 2019)", "key": {"[1]": {"assay": "Particle size distribution by laser diffraction (Malvern Mastersizer 3000, circulating aqueous suspension)", "type": "physicochemical", "details": "volume distribution", "procedure": "For the purpose of this invention, particle size distribution is determined as the percent volume at each particle size and measured by a laser diffraction method in the context of a circulating aqueous suspension. A Malvern Mastersizer 3000 laser diffraction analyzer equipped with a Hydro EV measurement cell was used. About 50 mg of sample were filled into a 15 ml glass test tube. The sample was wetted with two drops of Tween 80 and vortexed. Then the thoroughly wetted sample was dispersed in about 7 mL of UHQ-water by vortexing until the particles were dispersed. The suspension was treated for 7 minutes in an ultrasonification bath at RT (Elma S50H). The well dispersed suspension was then measured in water by adding a sample from the center of the test tube containing the well dispersed suspension to a water-filled dispersion unit prefilled with 70 mL of water. The sample in the 70 mL dispersion unit was kept under stirring at 2000 rpm. More sample from the test tube was added, until a targeted obscuration range of 10-25 percent was achieved. The Malvern Mastersizer was operated using the following parameters:\nMeasurement occurred after an optical alignment of the laser was done and after a background measurement was run. A measurement sequence consisted of eight individual measurements for which the mean value was represented as a histogram.\nd90 as used herein means that 90% of the particles (based on volume) are smaller than or equal to the indicated size.\nd50 as used herein means that 50% of the particles (based on volume) are smaller than or equal to the indicated size.\nd10 as used herein means that 10% of the particles (based on volume) are smaller than or equal to the indicated size.\nParticle size distribution was measured with a Malvern Mastersizer 3000 laser diffraction analyzer equipped with a Hydro EV measurement cell. About 50 mg of sample were given into a test tube. The sample was wetted with two drops of Tween 80 and dispersed in about 7 ml of water on a Vortexer. The suspension was treated for 7 minutes in a ultrasonification bath (Elma S50H). The well dispersed suspension was afterwards measured in water at a targeted obscuration range of 10-25 percent while circulating the aqueous suspension and stirring the suspension reservoir at 2000 rpm after a waiting period of three minutes. A fraunhofer optical model was utilized to deconvolute the sample scattering patterns to yield the resultant particle size distributions. Analysis model: General purpose/normal sensitivity. Measuring/background time: about 10 sec"}, "[2]": {"assay": "Polymorphic stability of brexpiprazole dihydrate during wet ball milling, checked by PXRD", "type": "physicochemical", "details": "ball mill 25 Hz, 0.2 mL water, 10° C.", "procedure": "The powder X-ray diffractogram was obtained with a PANalytical X'Pert PRO diffractometer equipped with a theta/theta coupled goniometer in transmission geometry, Cu-Kalpha1,2 radiation (wavelength 0.15419 nm) with a focusing mirror and a solid state PIXcel detector. The diffractogram was recorded at a tube voltage of 45 kV and a tube current of 40 mA, applying a stepsize of 0.013° 2-Theta with 40 s per step (255 channels) in the angular range of 2° to 40° 2-Theta at ambient conditions. A typical precision of the 2-Theta values is in the range of ±0.2° 2-Theta. […]\n500 mg brexpiprazole dihydrate from comparative example 1 were milled in the presence of 0.2 mL water at 10° C. with a Retsch MM301 ball mill at 25 Hz for 5 min (1.5 ml jacket and 1 steel ball of 5 mm diameter). The obtained micronized crystalline material was analysed by PXRD and PSD. […] (Determined by the laser diffraction method in the context of a circulating aqueous suspension as the percent volume at each particle size and measured by a Malvern Mastersizer 3000 laser diffraction analyzer.)\n500 mg brexpiprazole dihydrate from comparative example 1 were milled in the presence of 0.2 mL water at 10° C. with a Retsch MM301 ball mill at 25 Hz for 15 min (1.5 ml jacket and 1 steel ball of 5 mm diameter). The obtained micronized crystalline material was analysed by PXRD and PSD. […]"}, "[3]": {"details": "rats, intramuscular injection, 56 days after the injection, cited from earlier work"}, "[4]": {"assay": "Solubility in water at 25° C.", "type": "physicochemical", "source_text": "The brexpiprazole dihydrate can then be added to an aqueous medium in which it is hardly soluble to form a suspension."}}, "note": "Where two headings read alike, the source gives them in different places.", "data": [{"smiles": "O=c1ccc2ccc(OCCCCN3CCN(c4cccc5sccc45)CC3)cc2[nH]1", "note": "[Example 1]", "values": [{"measurement": "particle size distribution d10", "setting": "[1]", "value": 1.35, "unit": "μm"}, {"measurement": "particle size distribution d50", "setting": "[1]", "value": 8.24, "unit": "μm"}, {"measurement": "particle size distribution d90", "setting": "[1]", "value": 21, "unit": "μm"}, {"measurement": "transformation of dihydrate to anhydrate form I during micronization (PXRD peaks at 6.8° and 17.4°)", "setting": "[2]; 5 min", "value": "had not transformed to brexpiprazole anhydrate form I"}]}, {"smiles": "O=c1ccc2ccc(OCCCCN3CCN(c4cccc5sccc45)CC3)cc2[nH]1", "note": "[Example 2]", "values": [{"measurement": "particle size distribution d10", "setting": "[1]", "value": 1.15, "unit": "μm"}, {"measurement": "particle size distribution d50", "setting": "[1]", "value": 7.04, "unit": "μm"}, {"measurement": "particle size distribution d90", "setting": "[1]", "value": 19, "unit": "μm"}, {"measurement": "transformation of dihydrate to anhydrate form I during micronization (PXRD peaks at 6.8°, 10.0° and 17.4°)", "setting": "[2]; 15 min", "value": "had not transformed to brexpiprazole anhydrate form I"}]}, {"smiles": "O=c1ccc2ccc(OCCCCN3CCN(c4cccc5sccc45)CC3)cc2[nH]1", "note": "[brexpiprazole anhydrate]", "values": [{"measurement": "crystals detectable at the injection site", "setting": "[3]", "value": "no longer detectable"}, {"measurement": "solubility at 25° C. in water", "setting": "[4]", "value": 18, "unit": "µg/mL"}]}, {"smiles": "O=c1ccc2ccc(OCCCCN3CCN(c4cccc5sccc45)CC3)cc2[nH]1", "note": "[brexpiprazole dihydrate, 7-[4-[4-(1-Benzothiophen-4-yl)piperazin-1-yl]butoxy]quinolin-2(1H)-one dihydrate]", "values": [{"measurement": "particle size distribution d90", "setting": "[1]; listed as Reference Example 1, dihydrate", "value": "above 25 μm"}, {"measurement": "crystals detectable at the injection site", "setting": "[3]; dihydrate", "value": "can still be detected"}, {"measurement": "solubility", "setting": "[4]; 25 °C", "value": 10, "unit": "µg/mL"}]}]}
